Entries after “also recorded” stand apart in the source; their conditions may differ.
How the values were obtained:
[1] = Gerhlert et al., 2007; cited from earlier work
[2] = Gerhlert et al., 2007; cited from earlier work; remark: listed apart in the source
[3] = system: tau phosphorylation (tau-P) at the AT8 and PHF-1 sites; assay: Acute restraint stress-induced tau phosphorylation, Western blot of hippocampal extracts, CRF-R1 antagonist pretreatment; assay type: in vivo, mouse
Experimental: Acute restraint stress involved placing mice in ventilated 50 ml conical tubes for 30 min; repeated stress involved 14 consecutive daily exposures. Animals were killed at various intervals ranging from 20 min to 24 hr after stress. Control mice were handled comparably, but were not otherwise manipulated.
The small molecule, CRF-R1-selective antagonist, antalarmin (Webster et al., 1996), was administered at 20 mg/kg by intraperitoneal (ip) injection 20 min before stress exposure. All animals were handled twice daily for 28 d prior to experimentation, and received daily mock ip injections to minimize stress of injection at testing. […]
After sedation, the animals were decapitated and the hippocampus was rapidly dissected and frozen on dry ice. […] Protein concentrations were determined using a BCA Protein Assay Kit (Pierce Biotechnology, Rockford, Ill.). […] Primary antibodies were detected with either anti-mouse or rabbit horseradish peroxidase-linked secondary antibodies (1:1000 Calbiochem, San Diego, Calif.) and developed with an enhanced chemiluminescence Western blot detection kit (Supersignal West Pico, Pierce Biotechnology). Background subtraction was performed and quantitative band intensity readings were obtained using NIH Image software. […]

[4] = system: PS/APP mouse AD model (amyloid plaques); assay: Amyloid plaque density in PS/APP transgenic mouse AD model with or without chronic variable stress; assay type: in vivo; conditions: antalarmin 40 mg/kg/d ip; for density of plaques in cortex and hippocampus: sacrificed end of fifth month
Source text: The PS/APP mouse line was originally purchased from another research laboratory. These mice express the Swedish familial AD mutation of human amyloid precursor protein (APP) (APPK670N,M671L; line Tg2576) and the familial AD mutation of presenilin-1 (PSEN1-dE9) (Jankowsky et al., 2001). Hemizygous double mutant PS/APP offspring and non-transgenic mice were used in experimentation, as it has been reported that homozygote lines of Tg2576 cannot be generated (McGowan et al., 1999). Genotypes were determined by PCR analysis of ear or tail DNA.
For acute stress experiments, CRFR1-selective small molecule antagonist, antalarmin (Webster et al., 1996), was administered at 20 mg/kg by intraperitoneal (ip) injection 20 min before stress exposure. All animals were handled twice daily for at least 14d prior to experimentation, and receive daily mock ip injections to minimize stress of injection at testing. Antalarmin was solubilized in equal volumes of absolute ethanol and Cremaphor EL (Sigma-Aldrich, St. Louis, Mo.), as described (Webster et al., 1996; Pernar et al., 2004). This stock solution was diluted in prewarmed (50° C.) distilled water and adjusted to a final concentration of 4 mg/ml immediately prior to injection. For chronic administration, antalarmin was administered twice daily via ip injection (Wong et al., 1999).
CVS involved daily exposure to either two brief or one sustained stressor over 15d. Brief stressors included elevated plus maze exposure (30 min), shaker stress (30 min on an orbital shaker at 100 rpm), ip hypertonic saline injection (0.4 ml of 1.5M saline), restraint (30 min), tail suspension (10 min) and forced swimming (10 min in RT water). […]
There was no evidence of tau pathology (tangle formation), nor was it expected to develop in animals at this early stage of disease progression. […] While it remains to be determined whether this effect will maintain in older animals, and whether drug and/or stress exposure will affect tau pathology, the results provide an additional endorsement for considering CRFR1 as a therapeutic target in AD.

[5] = system: hippocampal tau-P (PHF-1 immunoreactivity); assay: Intracerebroventricular CRF injection, PHF-1 immunohistochemistry of hippocampus; assay type: in vivo, mouse; conditions: 0.5 μg CRF icv, 40 min after administration
Source text: CRF-R1−/− (U.S. Pat. No. 6,147,275) and CRF-R2−/− (U.S. Pat. No. 6,353,152) mice, along with age-matched wt controls (n=3/group), were anesthetized with isoflurane, and implanted stereotaxically with 26-ga guide cannulae (Plastics One, Wallingford, Conn.) aimed to terminate above the lateral ventricle. Cannulae were affixed to the skull with dental acrylic adhering to jeweler's screws partially driven into the skull, and sealed externally with stylets. After 7 d recovery, stylets were replaced with 33-ga injection cannulae, and 2 hr later the animals were remotely injected with 0.5 μg synthetic mouse/human CRF in […] saline, or vehicle alone, over ˜1 min. To approximate the time frame used in acute stress experiments, animals were killed 40 min after icy injection and perfused for immunohistochemistry, as above. CRF was generously provided by Dr. J. Rivier (Salk Institute).
Mice were perfused with 4% paraformaldehyde, as previously described (Bittencourt and Sawchenko, 2000). 30 μm-thick frozen sections were cut on a sliding microtome and stored at −20° C. in cryoprotectant solution (20% glycerol and 30% ethylene glycol in 0.1 M phosphate buffer) until use. Free-floating sections containing the hippocampus were used to detect tau-P with PHF-1 (1:500) in mouse tissues using Mouse-on-Mouse Immunodetection Kit reagents (Vector, Burlingame, Calif.) to avoid detection of endogenous mouse immunoglobulin. Endogenous peroxidase was quenched with 0.3% hydrogen peroxide, followed by 1% sodium borohydride to reduce free aldehydes. Reaction product was developed using a nickel-enhanced glucose oxidase method (Shu et al., 1988).
To determine whether CRF is capable of independently eliciting hippocampal tau-P, wt and CRF-R-deficient mice were implanted with lateral ventricular cannulae for icy injection. Resultant PHF-1 immunoreactivity was examined 40 min after administration of CRF (0.5 μg in 5 μl) or vehicle (FIG. 4B). […] In contrast to stress effects, however, no labeling of pyramidal neurons or their processes was observed after icy CRF injections.

[6] = system: interstitial fluid levels of Aβ; conditions: central CRF administration; APP transgenic mice; Kang et al., 2007; cited from earlier work

CCC(CC)c1cc(C)nn2c(-c3sc(N4CCOCC4)nc3Cl)c(C)nc12 [MTIP, 3-(4-Chloro-2-Morpholin-4-yl-Thiazol-5-yl)-8-(1-Ethylpropyl)-2,6-Dimethyl-Imidazo[1,2b]Pyridazine]
solubility [1]: favorable solubility
ability to cross the BBB [2]: has the ability to cross the BBB

CCCCN(CC)c1nc(C)nc2c1c(C)c(C)n2-c1c(C)cc(C)cc1C [antalarmin]
stress-induced increments in tau phosphorylation at the AT8 and PHF-1 sites ([3]; antalarmin 20 mg/kg ip 20 min before 30 min acute restraint, hippocampal extracts 20 min post-stress): prevented stress-induced increments in phosphorylation at both sites; also recorded: blocked the stress-induced increment
basal levels of tau-P at the AT8 or PHF-1 sites ([3]; antalarmin 20 mg/kg ip, unstressed mice, hippocampal extracts, relative to untreated controls): Neither antalarmin nor the vehicle used for its administration significantly altered basal levels of tau-P; also recorded: did not affect basal levels of phosphorylation
density of plaques (change by antagonist treatment) ([4]; both stressed and unstressed PS/APP mice, cerebral cortex): significantly reduced
density of plaques in cortex and hippocampus ([4]; stressed (CVS) PS/APP mice): 2.49 /mm^2
density of plaques in cortex and hippocampus ([4]; unstressed PS/APP mice): 1.15 /mm^2

CRF: synthetic mouse/human corticotropin-releasing factor peptide, injected icv (SEEPPISLDLTFHLLREVLEMARAEQLAQQAHSNRKLMEII)
hippocampal tau-P (PHF-1 labeling) after icv CRF ([5]; CRF-R1-/- mice): comparable to the low level seen in saline-injected controls
hippocampal tau-P (PHF-1 immunoreactivity) after icv CRF ([5]; CRF-R2-/- mice): robust increases in hippocampal tau-P
hippocampal tau-P (PHF-1 immunoreactivity) after icv CRF ([5]; wt mice): robust increases in hippocampal tau-P
interstitial fluid levels of Aβ [6]: can increase interstitial fluid levels of Aβ

Source: patent publication US9555032B2, “Methods for treatment and prevention of tauopathies and amyloid beta amyloidosis by modulating CRF receptor signaling” (Research Development Foundation, priority 2007, dated 2017)
